The values below come from patent publication US6407132B1, “Substituted imidazole derivatives and their use as histamine H3 receptor ligands” (James Black Foundation Limited, priority 1997, dated 2002).

Assay [1] concerns the target T1, Histamine H3 receptor (Cavia porcellus, UniProt Q9JI35). The experiment in a line: ileal longitudinal muscle, myenteric plexus functional assay (shift of R-(α)-methylhistamine E/[A] curves, Schild). It counts as cell-based. On the set-up: the longitudinal muscle layer and adhering myenteric plexus was teased away; from tissue; host or cells: guinea pig ileal longitudinal muscle with myenteric plexus. To be noted: guinea pig ileum longitudinal muscle myenteric plexus, electrically stimulated; antagonism of R-(α)-methylhistamine; typical variance ±0.15 log units; read-out: pKB (functional assay) - ileum (converted). The method, then:
The biological activity of the compounds of the examples was measured using the ileal longitudinal muscle, myenteric plexus assay described by Paton and Aboo Zar (J. Physiol. 1968, 194, 13-33). Male Dunkin-Hartley guinea pigs (250-300 g) were employed. Briefly, a 50 cm portion of ileum proximal to the caecum was removed, after discarding the terminal 20 cm. Ileal segments (3 cm) were cleaned by passing Krebs-Henseleit buffer containing 3 μM mepyramine gently through the ileum using a Pasteur pipette (size: 13.8 cm length, 0.65 cm diameter). To avoid unnecessary damage to the tissue, Krebs-Henseleit buffer was passed through the ileal segment, while it was lying horizontally on a petri dish. Therefore, the ileum was not over-distended and the buffer flowed through with ease. Each segment was then passed over a Pasteur pipette and the longitudinal muscle layer and adhering myenteric plexus was teased away using moist cotton wool, by stroking tangentially away from the mesenteric attachment. The tissues were suspended in 20 ml organ baths containing Krebs-Henseleit buffer at 37±1° C. and gassed with 95% CO2/5% O2. The tissues were ligated to two parallel stainless steel wires, situated between two platinum electrodes (0.76 cm length, 0.06 cm diameter). All measurements were recorded isometrically (Grass FTO3 transducer). Following an initial loading tension of 1 g, the tissues were stimulated with electrical pulses at a frequency of 0.1 Hz and a pulse duration of 0.5 msec, as described by Kosterlitz & Watt (Br. J. Pharmacol. 1968, 266-276). Initially, the tissues were stimulated at supramaximal (1.3 fold times maximal) voltage for a period of 30 min and then the tissues were washed and re-stimulated. A “sighter dose” of the selective histamine H3-receptor agonist, R-(α)-methylhistamine (0.3 μM) (Arrang et al. Nature, 1987, 117-123), was administered. Upon generation of response, the “sighter dose” was removed from the tissues by “washout” (6 washes over 60 min) and during this period the electrical stimulation was switched off. The tissues were then re-stimulated and allowed to stabilise prior to the addition of drug treatments, which were allocated on a randomised block basis to the organ baths. Following the incubation period, a single cumulative E/[A] curve was obtained. The experimental E/[A] curve data was expressed as the percentage inhibition of the peak height of electrically-stimulated contraction. Antagonist affinity values were calculated from the degree of rightward shift of the R-(α)-methylhistamine E/[A] curves using Schild's methods (Arunlakshana & Schild Br. J. Pharmacol. 1959, 48-58). Typical variance in this assay is ±0.15 log units.

For assay [2], the target named is T1, Histamine H3 receptor. The experiment in a line: Histamine H3 Radioligand Binding Assay - Guinea Pig Cortex ([3H]-R-α-methylhistamine). On the set-up: The cortex was dissected, weighed and homogenised in ice-cold 20 mM Hepes-NaOH buffer; from tissue; host or cells: guinea pig brain cortex membranes. To be noted: guinea pig cortex membranes; 0.1 nM [3H]-R-α-methylhistamine; typical variance ±0.12 log units; read-out: pKI (binding assay) - cortex (converted). The protocol:
Histamine H3 Radioligand Binding Assay—Guinea Pig Cortex
Male Dunkin Hartley guinea pigs (200-300 g) were used. The whole brain was removed and immediately placed in ice-cold 20 mM Hepes-NaOH buffer (pH7.4 at 21±3° C.). The cortex was dissected, weighed and homogenised in ice-cold 20 mM Hepes-NaOH buffer (pH7.4 at 21±3° C.) (50 ml/guinea-pig cortex) using a polytron (Kinematica AG, PT-DA 3020/2TS, 3×3s). The homogenate was centrifuged at 100×g for 5 min and the supernatants pooled and stored at 4° C. The pellets were rehomogenised in fresh ice-cold buffer (80 ml) and recentrifuged (100×g for 5 min). The supernatants were pooled and pellets rehomogenised and recentrifuged (100×g for 5 min). All supernatants were pooled and centrifuged at 39,800×g for 12 min at 4° C. The final pellet was resuspended in 20 mM Hepes-NaOH buffer (pH7.4 at 21±3° C.) to a tissue concentration of 7.5 mg.ml^−1, using a teflon-in-glass homogeniser.
Incubation Conditions and Data Analysis
These were essentially identical to those used for the guinea pig ileum myenteric plexus assay described above, except that the final assay concentration of [^3H]-R-α-methylhistamine was 0.1 nM. Typical variance in this binding assay is ±0.12 log units.

The target of assay [3] is T1, Histamine H3 receptor. The experiment in a line: Histamine H3 Radioligand Binding Assay - Guinea Pig Ileum ([3H]-R-α-methylhistamine). As to conditions: guinea pig ileum longitudinal muscle myenteric plexus membranes; 3 nM [3H]-R-α-methylhistamine; typical variance 0.12 log units; read-out: pKI (binding assay) - ileum (converted). On the set-up: The cortex was dissected, weighed and homogenised in ice-cold 20 mM Hepes-NaOH buffer; from tissue; host or cells: guinea pig brain cortex membranes. The method, then:
Histamine H3 Radioligand Binding Assay—Guinea Pig Ileum
Male Dunkin Hartley guinea pigs (200-300 g) were used. The small intestine was rapidly removed (cut ˜5 cm from caecum and 5 cm from stomach) and placed in ice-cold 20 mM Hepes-NaOH buffer (pH7.4 at 21±3° C.). The tissue was cut into ˜10 cm segments, flushed through with ice-cold 20 mM Hepes-NaOH buffer and placed in a beaker containing fresh buffer at 4° C. 10 cm segments of ileum were threaded onto a glass pipette and the longitudinal muscle myenteric plexus was peeled away from the circular muscle using damp cotton-wool. […]
Guinea pig ileum longitudinal muscle myenteric plexus membranes (400μl) were incubated for 165 min at 21±3° C. in a final volume of 500 μl with 20 mM Hepes-NaOH buffer containing [^3H]-R-α-methylhistamine (50 μl; 3 nM) and competing compound. […] The filters were washed (3×3 ml) with ice-cold 50 mM Tris-HCl (pH6.9 at 21±3° C.), transferred into scintillation vials, 5 ml liquid scintillation cocktail was added and after 4 hours the bound radioactivity was determined by counting (4 min) in a Beckman liquid scintillation counter.
Data are analysed using GraphPad prism and the general equation for a competition curve with variable Hill slope (nH). […]
KD is the equilibrium dissociation constant for the radioligand determined by saturation experiments. […]

T1 sequence (Q9JI35 whole entry): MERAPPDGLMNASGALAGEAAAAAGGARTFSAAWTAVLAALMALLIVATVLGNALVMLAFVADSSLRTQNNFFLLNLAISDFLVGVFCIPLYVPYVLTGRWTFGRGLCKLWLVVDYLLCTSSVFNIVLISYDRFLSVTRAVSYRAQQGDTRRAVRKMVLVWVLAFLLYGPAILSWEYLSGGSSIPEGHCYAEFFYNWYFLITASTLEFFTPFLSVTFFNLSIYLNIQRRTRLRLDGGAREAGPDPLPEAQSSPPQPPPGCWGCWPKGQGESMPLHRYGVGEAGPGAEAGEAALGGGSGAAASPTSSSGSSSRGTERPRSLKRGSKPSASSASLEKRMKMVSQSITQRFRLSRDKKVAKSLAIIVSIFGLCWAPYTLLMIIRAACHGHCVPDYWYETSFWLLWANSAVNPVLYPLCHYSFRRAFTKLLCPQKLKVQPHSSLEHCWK

Take `O=S(=O)(Cc1ccc(Cl)cc1)Nc1ccc(Cc2c[nH]cn2)cc1` [Example 4, C-(4-Chloro-phenyl)-N-[4-(1H-imidazol-4-ylmelhyl)-phenyl]-methanesulfonamide]: the Kb on Histamine H3 receptor [1] was 407 nM. At Histamine H3 receptor [2], the Ki is 93.3 nM.

Regarding `O=S(=O)(Cc1ccc(Cl)cc1)NCCc1ccc(Cc2c[nH]cn2)cc1` [Example 7, C-(4-Chloro-phenyl)-N-{2-[4-(1H-imidazol-4-ylmethyl)-phenyl]-ethyl}-methanesulfonamide], the Kb on Histamine H3 receptor [1] is 955 nM. Besides, at Histamine H3 receptor [2], the Ki is 288 nM.

In the case of `O=S(=O)(Cc1ccc(Cl)cc1)Nc1ccc(-c2c[nH]cn2)cc1` [Example 5, C-(4-Chloro-phenyl)-N-[4-(1H-imidazol-4-yl)-pheriyl]-methanesulfonamide], the Ki on Histamine H3 receptor [2] was 1410 nM.

For `O=S(=O)(Cc1ccc(Cl)cc1)NCc1ccc(Cc2c[nH]cn2)cc1` [Example 2, C-(4-Chlorophenyl)-N-[4-(1H-imidazol-4-ylmethyl)-benzyl]-methanesulfonamide], at Histamine H3 receptor [1], the Kb was 70.8 nM. The Ki on Histamine H3 receptor [2] was 28.8 nM; on Histamine H3 receptor [3] it was 141 nM.

In the case of `O=S(=O)(NCc1ccc(Cl)cc1)NCc1ccc(Cc2c[nH]cn2)cc1` [Example 3, N-(4-Chloro-benzyl)-N′-[4-(1H-imidazol-4-ylmethyl)-benzyl]-sulfamide], at Histamine H3 receptor [1], the Kb was 112 nM. Besides, on Histamine H3 receptor [2], the Ki was 15.8 nM.

Turning to `O=S(=O)(NCc1ccc(Cc2c[nH]cn2)cc1)c1ccc2ccccc2c1` [Example 1], the Kb at Histamine H3 receptor [1] was 229 nM. Further, the figures for the Ki at Histamine H3 receptor [2] and at Histamine H3 receptor [3] were 324 nM and 339 nM, respectively.

Consider `O=S(=O)(Cc1ccc(Cl)cc1)NCc1cccc(Cc2c[nH]cn2)c1` [Example 6, C-(4-Chloro-phenyl)-N-[3-(1H-imidazol-4-ylmethyl)-benzyl]-methanesulfonamide], for which the Ki at Histamine H3 receptor [2] is 372 nM.
